Results on 16 compounds are retold here after patent US20250367129A1, “Lipid Compounds and Uses Thereof” (Pfizer Inc., priority 2022, published 2025).

Series [1] in a line: LNP size and polydispersity index by Malvern Zetasizer dynamic light scattering (CA HA modFlu mRNA LNPs). It is filed as physicochemical. The note with it: DLS; for Size (nm): LNP of the ionizable lipid:cholesterol:DSPC:ALC-0159 about 46.3:42.7:9.4:1.6, N:P about 6:1, CA HA modFlu mRNA; for PDI: LNP with CA HA modFlu mRNA. Summed up: (§1)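 LNPs of ionizable lipid:cholesterol:DSPC:ALC-0159 (molar ratio about 46.3:42.7:9.4:1.6) formed by syringe-pump mixing of ethanolic lipids with mRNA at N:P about 6:1, then dialysed into buffer (e.g., Tris) and filtered. Size and PDI measured by DLS; total RNA and encapsulation efficiency by RiboGreen.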

Series [2] can be described thus: Encapsulation efficiency, RiboGreen RNA quantitation assay (CA HA modFlu mRNA LNPs). It counts as physicochemical. To be noted: LNP with CA HA modFlu mRNA. Summed up:
as §1

In series [3] the test system is HEK293F cells. Put plainly: In vitro expression of novel ionizable lipid nanoparticles, high content imaging (CA HA modFlu mRNA). It is filed as cell-based. The note with it: LNP with CA HA modFlu mRNA. The method in brief:
(§2)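 Lipid nanoparticles of ionizable lipid, cholesterol, DSPC and ALC-0159 (about 46.3:42.7:9.4:1.6 molar), N:P about 6:1, carrying mRNA, dosed onto cells overnight at 37° C., 5% CO2. Cells fixed and stained with Hoechst plus antibody to encoded protein; nuclei and antigen-positive cells counted by high-content imaging.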

Series [4] deals with Hela cells. The description is as above. It is filed as cell-based. To be noted: LNP with CA HA modFlu mRNA. The method in brief: as §2

Take `CCCCCCCCC(CC1CC=CC1)C(=O)OCC(COC(=O)C(CCCCCCCC)CC1CC=CC1)N1CCC2(CCN(CCCCO)CC2)CC1` (centres unmarked) [Example 35, 2-(9-(4-hydroxybutyl)-3,9-diazaspiro[5.5]undecan-3-yl)propane-1,3-diyl bis(2-(cyclopent-3-en-1-ylmethyl)decanoate)]: in series [1], the “Size (nm)” value is recorded as 102 nm and the PDI was 0.040. For the same compound, in series [2], the EE % is reported as 99%. Moreover, in series [3], the “EC50 Hek293F (ng/well)” value worked out at 21.3 ng/well. The “EC50 Hela (ng/well)” value in series [4] was 1.4 ng/well.
For `CCCCCCCCC(CCC1CCC1)C(=O)OCC(COC(=O)C(CCCCCCCC)CCC1CCC1)N1CCC2(CCN(CCCCO)CC2)CC1` (centres unmarked) [Example 36, 2-(9-(4-hydroxybutyl)-3,9-diazaspiro[5.5]undecan-3-yl)propane-1,3-diyl bis(2-(2-cyclobutylethyl)decanoate)], in that order: 136 nm, 0.059, 99%, 1.9 ng/well and 2.4 ng/well.
For `CCCCCCCCC(CC1CCCCC1)C(=O)OCC(COC(=O)C(CCCCCCCC)CC1CCCCC1)N1CCC2(CCN(CCCCO)CC2)CC1` (centres unmarked) [Example 37, 2-(9-(4-hydroxybutyl)-3,9-diazaspiro[5.5]undecan-3-yl)propane-1,3-diyl bis(2-(cyclohexylmethyl)decanoate)], in that order: 143 nm, 0.070, 99%, 0.67 ng/well and 0.90 ng/well.
For the compound `CCCCC(CCCC)C(CCCC)CCC(=O)OCC(COC(=O)CCC(CCCC)C(CCCC)CCCC)N1CCC2(CCN(CCCCO)CC2)CC1` (centres unmarked) [Example 38, 2-(9-(4-hydroxybutyl)-3,9-diazaspiro[5.5]undecan-3-yl)propane-1,3-diyl bis(4,5-dibutylnonanoate)], in series [1], the “Size (nm)” value is recorded as 146 nm and the PDI came to 0.100. The compound further yielded an EE % in series [2] of 100%. Moreover, the “EC50 Hek293F (ng/well)” value in series [3] amounted to 28.1 ng/well. In addition, the “EC50 Hela (ng/well)” value in series [4] was found to be 7.0 ng/well.
On to `CCCCCCC(CCCC)(CCCC)CC(=O)OCC(COC(=O)CC(CCCC)(CCCC)CCCCCC)N1CCC2(CCN(CCCCO)CC2)CC1` [Example 39, 2-(9-(4-hydroxybutyl)-3,9-diazaspiro[5.5]undecan-3-yl)propane-1,3-diyl bis(3,3-dibutylnonanoate)], for which, in series [1], the “Size (nm)” value stood at 134 nm and the PDI came out at 0.080. The compound also showed an EE % in series [2] of 100%. Also, in series [3], the “EC50 Hek293F (ng/well)” value was found to be 4.1 ng/well. In addition, in series [4], the “EC50 Hela (ng/well)” value is 3.4 ng/well.
For `CCCCCCCC(CCCCCCC)CCC(=O)OCC(COC(=O)CCC(CCCCCCC)CCCCCCC)N1CCC2(CCN(CCCCO)CC2)CC1` [Example 40, 2-(9-(4-hydroxybutyl)-3,9-diazaspiro[5.5]undecan-3-yl)propane-1,3-diyl bis(4-heptylundecanoate)], in that order: 117 nm, 0.080, 100%, 5.6 ng/well and 3.6 ng/well.
The corresponding values for `CCCCCCCC(CCCCCCC)C(=O)OCC(COC(=O)C(CCCCCCC)CCCCCCC)N1CCC2(CCN(CCCCCO)C2)C1` (centres unmarked) [Example 41, 2-(7-(5-hydroxypentyl)-2,7-diazaspiro [4.4]nonan-2-yl)propane-1,3-diyl bis(2-heptylnonanoate)] are 119 nm, 0.060, 99%, 0.20 ng/well and 0.30 ng/well.
For `CCCCCCCCCC(=O)OCC(COC(=O)C(CCCCCC)CCCCCCCC)N1CCC2(CCN(CCCCO)CC2)CC1` (centres unmarked) [Example 42, 3-(decanoyloxy)-2-(9-(4-hydroxybutyl)-3,9-diazaspiro[5.5]undecan-3-yl)propyl 2-hexyldecanoate], in that order: 100 nm, 0.080, 99%, 42.7 ng/well and greater than 50 ng/well.
Consider `CCCCCC/C=C\CCCC(=O)OCC(COC(=O)C(CCCCCC)CCCCCCCC)N1CCC2(CCN(CCCCO)CC2)CC1` (centres unmarked) [Example 43, 3-((2-hexyldecanoyl)oxy)-2-(9-(4-hydroxybutyl)-3,9-diazaspiro[5.5]undecan-3-yl)propyl (Z)-dodec-5-enoate], for which, in series [1], the “Size (nm)” value turned out to be 89 nm and the PDI was found to be 0.111. Further, in series [2], the EE % was found to be 99%. Further, the “EC50 Hek293F (ng/well)” value in series [3] was found to be 33.3 ng/well. Moreover, the “EC50 Hela (ng/well)” value in series [4] worked out at 14.2 ng/well.
The corresponding values for `CCCCCCCCC(CCCCCC)C(=O)OCC(COC(=O)C(CCCCCCCC)CC1CCC1)N1CCC2(CCN(CCCCO)CC2)CC1` (centres unmarked) [Example 44, 3-((2-(cyclobutylmethyl)decanoyl)oxy)-2-(9-(4-hydroxybutyl)-3,9-diazaspiro[5.5]undecan-3-yl)propyl 2-hexyldecanoate] are 119 nm, 0.080, 99%, 0.28 ng/well and 0.30 ng/well.
For `CCCCCCCCCC(CCCC)C(=O)OCC(COC(=O)C(CCCCCC)CCCCCCCC)N1CCC2(CCN(CCCCO)CC2)CC1` (centres unmarked) [Example 45, 3-((2-hexyldecanoyl)oxy)-2-(9-(4-hydroxybutyl)-3,9-diazaspiro[5.5]undecan-3-yl)propyl 2-butylundecanoate], in that order: 117 nm, 0.060, 99%, 1.1 ng/well and 1.1 ng/well.
As for `CCCCCCCCCCCCCCCC(=O)OCC(COC(=O)CCC(CCCC)C(CCCC)CCCC)N1CCC2(CCN(CCCCO)CC2)CC1` (centres unmarked) [Example 46, 3-((4,5-dibutylnonanoyl)oxy)-2-(9-(4-hydroxybutyl)-3,9-diazaspiro[5.5]undecan-3-yl)propyl palmitate], in series [1], the “Size (nm)” value was 92 nm and the PDI was found to be 0.090. Moreover, the EE % in series [2] is reported as 99%. The “EC50 Hek293F (ng/well)” value in series [3] was determined as 24.6 ng/well. Besides, the “EC50 Hela (ng/well)” value in series [4] came to 1.7 ng/well.
As to `CCCCCCCC(CCCCCCC)C(=O)OCCC(CCOC(=O)C(CCCCCCC)CCCCCCC)N1CCC2(CCN(CCCCO)CC2)CC1` [Example 47, 3-(9-(4-hydroxybutyl)-3,9-diazaspiro[5.5]undecan-3-yl)pentane-1,5-diyl bis(2-heptylnonanoate)], in series [1], the “Size (nm)” value stood at 147 nm and the PDI came to 0.080. For the same compound, the EE % in series [2] was 99%. In series [3], the “EC50 Hek293F (ng/well)” value came to 5.9 ng/well. Also, the “EC50 Hela (ng/well)” value in series [4] is on record as 4.6 ng/well.
The corresponding values for `CCCCCCCC(CCCCCCC)C(=O)OCC(COC(=O)C(CCCCCCC)CCCCCCC)N1CCC2(CCN(CCCCCO)C2)CC1` [Example 48, 2-(2-(5-hydroxypentyl)-2,8-diazaspiro[4.5]decan-8-yl)propane-1,3-diyl bis(2-heptylnonanoate)] are 127 nm, 0.093, 100%, 0.76 ng/well and 1.0 ng/well.
The corresponding values for `CCCCCCCCC(CCCCCC)C(=O)OCC(COC(=O)C(CCCCCC)CCCCCCCC)N1CC2(CCN(CCCCCO)CC2)C1` (centres unmarked) [Example 49, 2-(7-(5-hydroxypentyl)-2,7-diazaspiro [3.5]nonan-2-yl)propane-1,3-diyl bis(2-hexyldecanoate)] are 160 nm, 0.110, 99%, 0.41 ng/well and 1.4 ng/well.
Regarding `CCCCCCCCC(CCCCCC)C(=O)OCC(COC(=O)C(CCCCCC)CCCCCCCC)N1CCC2(CC1)CN(CCCCO)C2` (centres unmarked) [Example 50, 2-(2-(4-hydroxybutyl)-2,7-diazaspiro[3.5]nonan-7-yl)propane-1,3-diyl bis(2-hexyldecanoate)], in series [1], the “Size (nm)” value came out at 120 nm and the PDI stood at 0.046. In series [2], this compound had an EE % of 99%. Also, the “EC50 Hek293F (ng/well)” value in series [3] stood at 0.56 ng/well. The “EC50 Hela (ng/well)” value in series [4] turned out to be 0.74 ng/well.
